Laboratory results from patent US9102636B2, “Analgesic compounds, compositions, and uses thereof” (Galleon Pharmaceuticals, Inc., priority 2010, dated 2015).
Values joined by “and” are separate entries in the source; they are usually repeats but may differ in a detail not shown here. Equal values may be shown once. Where a name gives a salt, the structure may show the parent alone.

Tests used:
[1] = test system: Carrageenan-induced thermal hyperalgesia; experiment: Carrageenan-induced thermal hyperalgesia (Hargreaves); type: in vivo, rat; details: indomethacin 30 mg/kg p.o. prior to carrageenan; for Paw withdrawal latency: cut-off 40 s, individual animals
Method: (§1) The effect of Compound 2 in the rat carrageenan model of acute inflammatory pain was evaluated. The intraplantar carrageenan model of acute inflammatory pain in the rat results in behaviors similar to that observed in patients and has been widely used to assess novel pharmacological treatments (Whiteside et al., 2005, J. Pharmacol. Exp. Ther. 314:1234-1240). The objective of this study was to evaluate the ability of Compound 2 to reverse or prevent development of thermal hyperalgesia and edema in the rat carrageenan model of acute inflammatory pain. The positive control was indomethacin (Sigma, St. Louis), and the negative control was vehicle (0.5% methyl cellulose). […] The Hargreaves apparatus was obtained from Ugo Basile, Italy, and the lamba-carrageenan was obtained from Sigma, St. Louis. For this assay, paw withdrawal latency to a thermal stimulus was assessed using a radiant heat source (Ugo Basile, Italy) aimed at the plantar surface of the left hind paw (Hargreaves test). […] Paw volume was measured by displacement of water and assuming a tissue density equal to that of water. Baseline latencies were taken prior to carrageenan administration and re-assessed 4 h later. Compound 2 or vehicle was administered (10 and 30 mg/kg, p.o.) 3 hrs after carrageenan (curative) and behavior assessed 1 hr later. […] Indomethacin (positive control, 30 mg/kg p.o.) was administered prior to carrageenan and behavior assessed 4 hrs post-carrageenan. […] After induction of anesthesia, the injection site was prepared in a sterile manner and 50 μl of a 2% Jamba-carrageenan was injected. After injection, animals were weighed and allowed to recover before being returned to their home cages. Statistical significance was determined on untransformed data using a two-way analysis of variance (Graphpad Prism, NC). Significant main effects were analyzed further by subsequent Bonferronni post-hoc test. The level of significance was set at p<0.05. Data are shown as mean±S.E.M. (with an asterisk to denote significance as compared to vehicle treated controls).

[2] = test system: Carrageenan-induced edema; experiment: Carrageenan-induced edema (paw volume); type: in vivo, rat; details: indomethacin 30 mg/kg p.o. prior to carrageenan; for Paw volume: individual animals
Method: as §1, with “later.” for “later. Compound 2 or vehicle was administered (10 and 30 mg/kg, p.o.) 3 hrs after carrageenan (curative) and behavior assessed 1 hr later.”

## O=C(O)[C@@H]1CSC(Nc2ccc(F)cc2O)=N1 (as salt: HCl) [Compound 6, (R)-2-(4-Fluoro-2-hydroxyphenylamino)-thiazoline-4-carboxylic acid]
other
  melting point: 109 to 111 °C

## Cc1c(Cl)cc(NC2=N[C@H](C(=O)O)CS2)c(O)c1Cl (as salt: HCl) [Compound 8, (R)-2-(3,5-Dichloro-2-hydroxy-4-methylphenylamino)-thiazoline-4-carboxylic acid]
other
  melting point: 205 to 207 °C

## COC(=O)c1ccc(NC2=N[C@H](C(=O)O)CS2)c(O)c1 (as salt: HCl) [Compound 12, (R)-2-(2-Hydroxy-4-methoxycarbonylphenylamino)-thiazoline-4-carboxylic acid]
other
  melting point: 118 to 120 °C

## COc1ccc2c(c1)c(CC(=O)O)c(C)n2C(=O)c1ccc(Cl)cc1 [Indo]
[1]; 4 hrs post-carrageenan (second line)
  Paw withdrawal latency: 17 s and 35 s and 26 s and 28 s and 40 s (2×)
[1]; baseline prior to carrageenan (first line)
  Paw withdrawal latency: 20 s and 40 s and 17 s and 32 s and 23 s and 24 s
[2]; 4 hr post-drug
  Paw volume: 2.5 mL and 2.4 mL and 2.3 mL (2×) and 2.2 mL and 1.8 mL
[2]; Pre-Cg
  Paw volume: 1.7 mL (2×) and 1.5 mL (2×) and 1.8 mL and 1.4 mL

## COc1ccc2c(c1)c(CC(=O)O)c(C)n2C(=O)c1ccc(Cl)cc1 [indomethacin, reference compound]
[1]; rat, 4 hrs post-carrageenan
  carrageenan-induced thermal hyperalgesia, positive control preemptive: statistically significant prevention
[2]; rat, 4 hrs post-carrageenan
  carrageenan-induced edema, positive control preemptive: statistically significant prevention
